Measured values as given in patent US20190275179A1, “SONOPHORE-LABELED PROBES AND RELATED IN VIVO IMAGING TECHNIQUES” (MEMORIAL SLOAN KETTERING CANCER CENTER, priority 2016, published 2019).

Tests used:
[1] = Absorbance spectra of BHQ-1 and BHQ-1-cRGD by spectrophotometry; assay type: physicochemical; conditions: measured in ethanol, 250 nm to 750 nm
Protocol: To a stirring solution of cyclic RGD (cyclo(Arg-Gly-Asp-D-Phe-Lys) (cRGD), 1.0 mg, 1.66 μmol, 1.0 eq., Peptides International, KY, US) in anhydrous DMF (200 μL) a solution of BHQ-1 N-hydroxysuccinimide (NHS) ester (1.2 mg, 2.0 μmol, 1.2 eq., Biosearch Technologies, CA, US) in anhydrous DMF (200 μL) and […] (1.2 μL, 8.0 μmol, 4.8 eq.) was added sequentially. The resulting reaction solution was stirred for 4 h at room temperature. Purification by high performance liquid chromatography (HPLC) (C18, 10% to 100% of acetonitrile over 10 min, then 100% of acetonitrile until 18 min, 1.0 mL/min) yielded BHQ-1-cRGD (1.5 mg, 1.4 μmol, 82%) as a black solid. The purity of BHQ-1-cRGD was analyzed by performing analytical HPLC (rt=11.0 min, >97%). The identity of the product ([…], MW: 1090.21 g/mol) was verified by electrospray ionization mass spectrometry (ESI(+): m/z (%) 546.70 (100) [M+2H]^2+, 1090.40 (25) [M+H]^+). The absorbance spectra of BHQ-1 and BHQ-1-cRGD were measured in ethanol using spectrophotometry from 250 nm to 750 nm.

[2] = In vivo optoacoustic imaging (RSOM) of BHQ-1 in mouse footpad; design: species or system mice
Protocol: For in vivo experiments, 6-8 week old female Hsd: Athymic Nude-Foxn1^nu mice were purchased from Envigo (IN, US). All animal experiments were performed in accordance with institutional guidelines and approved by the IACUC of MSK, and followed NIH guidelines for animal welfare.
For imaging, a high-resolution raster-scan optoacoustic mesoscopy (RSOM) prototype scanner was used in an epi-illumination mode. The scanner illuminates the tissue with a fast monochromatic nanosecond laser (1 ns, 2 kHz, 1 mJ pulse energy at 532 nm). The laser light was coupled to the sample using a three arm fiber bundle which is combined with the ultrasound detector into a single scan unit. The optoacoustic signals were measured with a 50 MHz spherically focused detector and a bandwidth of 5-80 MHz. Furthermore, the signals were amplified with a 63 dB low noise amplifier and digitized using a fast 12 bit data acquisition card. The scan was performed in a continuous-discrete manner. The usual scan took 1.30 minutes for a field of view of 8×8 mm^2 and the maximum depth was about 2 mm, limited by the penetration depth of 532 nm photons in tissue.
The raw signals were transformed to the computer on which they were later reconstructed using beam forming. Before reconstruction, the signals were divided into two sub-bands: low frequencies 5-25 MHz and high frequencies 25-80 MHz. These sub-bands were later on separately reconstructed an overlayed using different colors (red=low frequencies, green=high frequencies). For the reconstruction a speed of sound of 1540 m/s has been used and the reconstruction has been performed with voxel sizes of 20×20×5 μm^3. Finally, the Hilbert transform was applied to the reconstructed volume to remove the negative values and the images were further processed using a Wiener and a Median filter to improve the signal to noise ratio. For visualization we took the maximum intensity of the three-dimensional volume.
All mice were anesthetized using 2% isoflurane. For imaging the quencher dye in vivo, 10 nmol BHQ-1 solution were injected subcutaneously into the footpad of 3 mice. The mouse was then placed in a pre-warmed water bath on a mouse bed keeping the head of the animal above water level. The foot of the mouse was stabilized under water with tape to keep it in a static position for the measurement procedure. The feet were measured before and directly after injection using RSOM as described under 2.3. Quantitative analysis was done in ImageJ by placing a ROI over the injection site of each foot as well as over the background blood vessels in the foot pad.

[3] = 10 nmol subcutaneous into footpad

- absorption spectrum peak [1]: 515 nm
SMILES: COc1cc(/N=N/c2ccc(C)cc2[N+](=O)[O-])c(C)cc1/N=N/c1ccc(N)cc1 [BHQ-1]
- optoacoustic signal at the injection site, high frequencies (25-80 MHz) [2, 3]: 55.6±5.7 AU
- optoacoustic signal at the injection site, low frequencies (5-25 MHz) [2, 3]: 67.2±3.4 AU
- optoacoustic signal at the injection site, overlay image of all detected frequencies ([2]; 10 nmol subcutaneous into footpad, directly after injection): 121.6±14.2 AU
- optoacoustic signal at injection site relative to surrounding footpad vessels ([2]; overlay of all frequencies, 10 nmol s.c.): ~5 times
